From ChEMBL document CHEMBL5137131, “Mechanisms of Biochanin A Alleviating PM2.5 Organic Extracts-Induced EMT of A549 Cells through the PI3K/Akt Pathway” (J Nat Prod, 2022)
Calls of active or inactive are those of the source. The rule behind the calls is not given here.

Experiments:
A549 [1] = assay: Cytotoxicity against human A549 cells assessed as reduction in cell viability at 1.5625 to 25 uM incubated for 48 hrs by CCK-8 assay; assay type: toxicity, cell-based; settings: a549, 48 h, dose 1.5625-25 µM
A549 [2] = assay: Cytotoxicity against human A549 cells assessed as reduction in cell viability at 200 uM incubated for 48 hrs by CCK-8 assay relative to control; assay type: toxicity, cell-based; settings: a549, 48 h
A549 [3] = assay: Protection against PM2.5 induced human A549 cells injury assessed as reduction in PM2.5 induced cell proliferation inhibition at 10 to 30 uM measured at 24 hrs by CCK-8 analysis; assay type: functional, cell-based; settings: dose 10-30 µM
A549 [4] = assay: Protection against PM2.5 induced human A549 cells morphological change assessed as reduction in number of mesenchymal morphogenetic cells at 10 to 30 uM measured after 48 hrs by microscopic analysis; assay type: functional, cell-based; settings: dose 10-30 µM
A549 [5] = assay: Inhibition of cell invasion in PM2.5 induced human A549 cells assessed as number of cell perforation at 20 uM measured after 24 hrs by Giemsa staining based transwell assay (reference value: 93 +/- 4.04%); assay type: functional; set-up: scale not given: the % may be the effect or the level left
A549 [6] = assay: Inhibition of cell invasion in PM2.5 induced human A549 cells assessed as number of cell perforation at 10 uM measured after 24 hrs by Giemsa staining based transwell assay (reference value: 93 +/- 4.04%); assay type: functional; set-up: scale not given: the % may be the effect or the level left
A549 [7] = assay: Inhibition of cell migration in PM2.5 induced human A549 at 30 uM incubated for 24 hrs by wound healing assay relative to control; assay type: functional
A549 [8] = assay: Inhibition of cell migration in PM2.5 induced human A549 assessed as scratch migration length at 10 uM incubated for 0 hr by wound healing assay (reference value: 2.120 +/- 0.132 micrometer); assay type: functional
A549 [9] = assay: Inhibition of cell migration in PM2.5 induced human A549 assessed as scratch migration length at 20 uM incubated for 0 hr by wound healing assay (reference value: 2.120 +/- 0.132 micrometer); assay type: functional
A549 [10] = assay: Inhibition of cell migration in PM2.5 induced human A549 assessed as scratch migration length at 30 uM incubated for 0 hr by wound healing assay (reference value: 2.120 +/- 0.132 micrometer); assay type: functional
A549 [11] = assay: Inhibition of cell migration in PM2.5 induced human A549 assessed as scratch migration length at 10 uM incubated for 24 hr by wound healing assay (reference value: 1.757 +/- 0.094 micrometer); assay type: functional
A549 [12] = assay: Inhibition of cell migration in PM2.5 induced human A549 assessed as scratch migration length at 20 uM incubated for 24 hr by wound healing assay (reference value: 1.757 +/- 0.094 micrometer); assay type: functional
A549 [13] = assay: Inhibition of cell migration in PM2.5 induced human A549 assessed as scratch migration length at 30 uM incubated for 24 hr by wound healing assay (reference value: 1.757 +/- 0.094 micrometer); assay type: functional
A549 [14] = assay: Inhibition of cell migration in PM2.5 induced human A549 assessed as relative migration length at 10 uM incubated for 24 hr by wound healing assay (reference value: 0.363 micrometer); assay type: functional
A549 [15] = assay: Inhibition of cell migration in PM2.5 induced human A549 assessed as relative migration length at 20 uM incubated for 24 hr by wound healing assay (reference value: 0.363 micrometer); assay type: functional
A549 [16] = assay: Inhibition of cell migration in PM2.5 induced human A549 assessed as relative migration length at 30 uM incubated for 24 hr by wound healing assay (reference value: 0.363 micrometer); assay type: functional
A549 [17] = assay: Inhibition of cell migration in PM2.5 induced human A549 assessed as relative migration rate at 10 uM incubated for 24 hr by wound healing assay (reference value: 129%); assay type: functional; set-up: scale not given: the % may be the effect or the level left
A549 [18] = assay: Inhibition of cell migration in PM2.5 induced human A549 assessed as relative migration rate at 20 uM incubated for 24 hr by wound healing assay (reference value: 129%); assay type: functional; set-up: scale not given: the % may be the effect or the level left
A549 [19] = assay: Inhibition of cell migration in PM2.5 induced human A549 assessed as relative migration rate at 30 uM incubated for 24 hr by wound healing assay (reference value: 129%); assay type: functional; set-up: scale not given: the % may be the effect or the level left
A549 [20] = assay: Inhibition of cell invasion in PM2.5 induced human A549 cells assessed as number of cell perforation at 30 uM measured after 24 hrs by Giemsa staining based transwell assay (reference value: 93 +/- 4.04%); assay type: functional; set-up: scale not given: the % may be the effect or the level left
A549 [21] = assay: Inhibition of cell invasion in PM2.5 induced human A549 cells assessed as reduction in cell invasiveness at 20 uM measured after 24 hrs by Giemsa staining based transwell assay relative to control; assay type: functional; set-up: scale not given: the % may be the effect or the level left
A549 [22] = assay: Inhibition of cell invasion in PM2.5 induced human A549 cells assessed as reduction in cell invasiveness at 30 uM measured after 24 hrs by Giemsa staining based transwell assay relative to control; assay type: functional; set-up: scale not given: the % may be the effect or the level left
A549 [23] = assay: Downregulation of PM2.5 induced CXCL12 expression in human A549 cells at 10 uM by ELISA relative to control; assay type: functional
A549 [24] = assay: Downregulation of PM2.5 induced CXCL12 expression in human A549 cells at 20 uM by ELISA relative to control; assay type: functional
A549 [25] = assay: Inhibition of PM2.5 induced TGF-beta1 secretion in human A549 cells at 10 uM by ELISA relative to control; assay type: functional
A549 [26] = assay: Inhibition of PM2.5 induced TGF-beta1 secretion in human A549 cells at 20 uM by ELISA relative to control; assay type: functional
A549 [27] = assay: Inhibition of PM2.5 induced TGF-beta1 secretion in human A549 cells at 30 uM by ELISA relative to control; assay type: functional
A549 [28] = assay: Upregulation of PM2.5 induced E-cadherin mRNA expression in human A549 cells at 10 uM by qRT-PCR analysis; assay type: functional, cell-based
A549 [29] = assay: Upregulation of PM2.5 induced mRNA expression in human A549 cells at 20 uM by qRT-PCR analysis; assay type: functional, cell-based
A549 [30] = assay: Reversal of PM2.5 induced EMT in human A549 cells at 10 uM by ELISA; assay type: functional, cell-based
A549 [31] = assay: Downregulation of PM2.5 induced N-cadherin mRNA level in human A549 cells at 10 uM by qRT-PCR analysis relative to control; assay type: functional
A549 [32] = assay: Downregulation of PM2.5 induced N-cadherin mRNA level in human A549 cells at 20 uM by qRT-PCR analysis relative to control; assay type: functional
A549 [33] = assay: Downregulation of PM2.5 induced vimentin mRNA expression in human A549 cells at 10 uM by qRT-PCR analysis relative to control; assay type: functional
A549 [34] = assay: Downregulation of PM2.5 induced vimentin mRNA expression in human A549 cells at 20 uM by qRT-PCR analysis relative to control; assay type: functional
A549 [35] = assay: Downregulation of PM2.5 induced vimentin mRNA expression in human A549 cells at 30 uM by qRT-PCR analysis relative to control; assay type: functional
A549 [36] = assay: Downregulation of PM2.5 induced fibronectin mRNA level in human A549 cells at 10 uM by qRT-PCR analysis; assay type: functional, cell-based
A549 [37] = assay: Downregulation of PM2.5 induced fibronectin mRNA level in human A549 cells at 20 uM by qRT-PCR analysis; assay type: functional, cell-based
A549 [38] = assay: Downregulation of PM2.5 induced fibronectin mRNA level in human A549 cells at 30 uM by qRT-PCR analysis; assay type: functional, cell-based
A549 [39] = assay: Upregulation of PM2.5 induced E-cadherin expression in human A549 cells at 30 uM by Western blot analysis; assay type: functional, cell-based
A549 [40] = assay: Downregulation of PM2.5 induced vimentin expression in human A549 cells at 10 to 30 uM by Western blot analysis relative to control; assay type: functional; settings: dose 10-30 µM
A549 [41] = assay: Downregulation of PM2.5 induced MMP-2 activation in human A549 cells at 10 uM by ELISA; assay type: functional, cell-based
A549 [42] = assay: Downregulation of PM2.5 induced MMP-9 activation in human A549 cells at 10 uM by ELISA; assay type: functional, cell-based
A549 [43] = assay: Inhibition of PM2.5 induced PI3K upregulation in human A549 cells at 20 uM by Western blot analysis relative to control; assay type: functional
A549 [44] = assay: Inhibition of PM2.5 induced PI3K upregulation in human A549 cells at 30 uM by Western blot analysis relative to control; assay type: functional
[45] = target: T1, Serine/threonine-protein kinase AKT (Homo sapiens) (UniProt P31751+Q9Y243+P31749); assay: Inhibition of PM2.5 induced Akt phosphorylation upregulation in human A549 cells at 10 uM by Western blot analysis relative to control; assay type: cell-based
T1 sequence (P31749 whole entry, looked up): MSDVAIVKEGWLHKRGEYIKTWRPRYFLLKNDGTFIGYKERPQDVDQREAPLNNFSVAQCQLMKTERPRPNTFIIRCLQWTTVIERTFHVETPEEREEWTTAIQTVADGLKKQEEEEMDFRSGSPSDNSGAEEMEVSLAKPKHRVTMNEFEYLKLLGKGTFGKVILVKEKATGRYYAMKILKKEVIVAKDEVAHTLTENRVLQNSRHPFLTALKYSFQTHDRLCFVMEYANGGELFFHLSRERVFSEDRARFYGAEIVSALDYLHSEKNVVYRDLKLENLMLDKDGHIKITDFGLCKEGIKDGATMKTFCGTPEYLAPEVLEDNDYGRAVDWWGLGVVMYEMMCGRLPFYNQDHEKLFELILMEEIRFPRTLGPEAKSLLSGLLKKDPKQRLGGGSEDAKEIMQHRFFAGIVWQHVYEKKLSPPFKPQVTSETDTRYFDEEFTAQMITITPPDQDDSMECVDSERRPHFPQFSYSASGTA
T1 sequence (P31751 whole entry, looked up): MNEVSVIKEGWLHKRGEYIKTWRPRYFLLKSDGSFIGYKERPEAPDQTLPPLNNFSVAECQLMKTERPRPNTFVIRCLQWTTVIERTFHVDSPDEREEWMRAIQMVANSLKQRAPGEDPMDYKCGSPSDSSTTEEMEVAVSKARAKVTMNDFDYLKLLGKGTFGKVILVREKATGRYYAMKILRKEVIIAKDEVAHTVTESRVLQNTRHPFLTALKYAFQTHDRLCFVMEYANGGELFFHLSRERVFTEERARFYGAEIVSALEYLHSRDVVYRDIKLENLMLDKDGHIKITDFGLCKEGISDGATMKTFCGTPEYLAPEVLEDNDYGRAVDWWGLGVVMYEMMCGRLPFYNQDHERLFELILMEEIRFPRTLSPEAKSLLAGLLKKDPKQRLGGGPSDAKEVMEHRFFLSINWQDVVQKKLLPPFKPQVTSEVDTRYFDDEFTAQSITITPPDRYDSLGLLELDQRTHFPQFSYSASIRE
T1 sequence (Q9Y243 whole entry, looked up): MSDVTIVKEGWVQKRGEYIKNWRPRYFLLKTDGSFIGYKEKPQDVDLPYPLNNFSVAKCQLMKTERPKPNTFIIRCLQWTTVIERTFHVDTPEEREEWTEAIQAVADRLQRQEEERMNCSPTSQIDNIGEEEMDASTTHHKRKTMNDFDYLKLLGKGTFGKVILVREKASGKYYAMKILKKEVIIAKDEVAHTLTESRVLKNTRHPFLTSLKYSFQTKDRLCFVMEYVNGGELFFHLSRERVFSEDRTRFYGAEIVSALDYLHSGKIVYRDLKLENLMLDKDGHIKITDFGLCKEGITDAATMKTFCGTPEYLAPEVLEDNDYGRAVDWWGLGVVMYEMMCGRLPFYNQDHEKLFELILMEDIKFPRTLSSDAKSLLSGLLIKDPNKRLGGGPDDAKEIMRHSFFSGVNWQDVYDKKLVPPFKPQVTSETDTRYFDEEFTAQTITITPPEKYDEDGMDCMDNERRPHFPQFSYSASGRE

[46] = target: T1, Serine/threonine-protein kinase AKT (Homo sapiens); assay: Inhibition of PM2.5 induced Akt phosphorylation upregulation in human A549 cells at 20 uM by Western blot analysis relative to control; assay type: cell-based
[47] = target: T1, Serine/threonine-protein kinase AKT (Homo sapiens); assay: Inhibition of PM2.5 induced Akt phosphorylation upregulation in human A549 cells at 30 uM by Western blot analysis relative to control; assay type: cell-based
A549 [48] = assay: Inhibition of PM2.5 induced PI3K expression in human A549 cells at 10 to 30 uM by qRT-PCR analysis; assay type: functional, cell-based; settings: dose 10-30 µM
A549 [49] = assay: Inhibition of PM2.5 induced Akt phosphorylation in human A549 cells at 10 to 30 uM […]; assay type: functional, cell-based; settings: dose 10-30 µM
A549 [50] = assay: Inhibition of PM2.5 induced PI3K/Akt activation assessed as inhibition of Snail expression in human A549 cells at 10 to 20 uM; assay type: cell-based; settings: dose 10-20 µM
A549 [51] = assay: Inhibition of PM2.5 induced PI3K/Akt activation assessed as inhibition of Slug expression in human A549 cells at 10 to 20 uM; assay type: cell-based; settings: dose 10-20 µM
A549 [52] = assay: Inhibition of PM2.5 induced PI3K/Akt activation assessed as inhibition of Twist expression in human A549 cells at 10 to 20 uM; assay type: cell-based; settings: dose 10-20 µM

SMILES: COc1ccc(-c2coc3cc(O)cc(O)c3c2=O)cc1 [BIOCHANIN]
- Activity (A549 [1]): Non-Toxic
- Activity (A549 [2]): 19%
- Activity (A549 [3]): Active
- Activity (A549 [4]): Active
- Activity (A549 [5]): 61.3%
- Activity (A549 [6]): 92%
- inhibition at 30 µM (A549 [7]): 22%
- Activity (A549 [8]): 1.973 um
- Activity (A549 [9]): 1.932 um
- Activity (A549 [10]): 1.854 um
- Activity (A549 [11]): 1.568 um
- Activity (A549 [12]): 1.451 um
- Activity (A549 [13]): 1.552 um
- Activity (A549 [14]): 0.405 um
- Activity (A549 [15]): 0.481 um
- Activity (A549 [16]): 0.302 um
- Activity (A549 [17]): 144%
- Activity (A549 [18]): 171%
- Activity (A549 [19]): 107%
- Activity (A549 [20]): 52%
- Activity (A549 [21]): 34.09%
- Activity (A549 [22]): 44.1%
- Activity (A549 [23]): 17%
- Activity (A549 [24]): 20%
- inhibition at 10 µM (A549 [25]): 16.2%
- inhibition at 20 µM (A549 [26]): 13.1%
- inhibition at 30 µM (A549 [27]): 24.8%
- Activity (A549 [28]): Active
- Activity (A549 [29]): Active
- Activity (A549 [30]): Active
- Activity (A549 [31]): 67%
- Activity (A549 [32]): 79%
- Activity (A549 [33]): 76%
- Activity (A549 [34]): 48%
- Activity (A549 [35]): 78%
- Activity (A549 [36]): Active
- Activity (A549 [37]): Active
- Activity (A549 [38]): Active
- Activity (A549 [39]): Active
- Activity (A549 [40]): 45%
- Activity (A549 [41]): Active
- Activity (A549 [42]): Active
- inhibition at 20 µM (A549 [43]): 50%
- inhibition at 30 µM (A549 [44]): 63.3%
- inhibition [45]: 30%
- inhibition [46]: 73.6%
- inhibition [47]: 17.1%
- inhibition (A549 [48]): Active
- inhibition (A549 [49]): Active
- inhibition (A549 [50]): Active
- inhibition (A549 [51]): Active
- inhibition (A549 [52]): Active
